Laboratory results as given in article PMC3556473, “Absorption, metabolism and excretion of [^14C]pomalidomide in humans following oral administration” (Cancer Chemotherapy and Pharmacology, 2012).
Values joined by “and” are separate entries in the source; they are usually repeats but may differ in a detail not shown here. Equal values may be shown once. Read-outs that look alike come from different tables or passages of the source.

How the values were obtained:
[1] = design: method as in earlier work; conditions: ref 2 and unpublished data, cited from earlier work
[2] = Excretion of radioactivity in urine and feces (mass balance); type: in vivo, human
Experimental: (§1) Each subject was administered a single oral suspension of 2 mg (100 μCi) of [^14C]pomalidomide in seltzer water (75 mL) followed by administration of an additional 140 mL of distilled water. Subjects were fasted for 8 h prior to and 4 h following dose administration. The residual radioactivity in the dosing vials was determined, and for six of the eight subjects (subjects 1–4, 6 and 8), the administered dose (1.93–2.02 mg) was close to the target dose of 2 mg. For subjects 5 and 7, a significant amount of radioactivity remained in the dose vial, resulting in administered doses of 1.59 and 1.51 mg, respectively. Calculations for percent of dose recovered in excreta were based on the actual administered doses.
(§2) Blood was collected into pre-chilled K3EDTA tubes at pre-dose, 0.5, 1, 1.5, 2, 2.5, 3, 4, 6, 8, 10, 12, 24, 48, 72, 120 and 168 h following dose administration. Blood for radioactivity counting was transferred to a clean tube and stored at or below 4 °C until analyzed. Plasma was harvested by centrifugation from the remaining blood. A plasma sample for radioactivity counting was transferred to a fresh tube. Three plasma aliquots were transferred to tubes containing citric acid for metabolite profiling and for determination of pomalidomide enantiomer concentrations in plasma. Urine was collected pre-dose, 0–6, 6-12, 12–24 and every 24 h thereafter up to 216 h (9 days) following dose administration and were stabilized with one volume of pH 1.5 Sorensen’s citrate buffer (25 mM sodium citrate buffer adjusted to pH 1.5). During the 12- to 24-h collection interval for subject 4, approximately 550 mL of urine was inadvertently poured into the wrong collection urinal and the sample was lost. […] Individual fecal samples were collected pre-dose and for up to 9 days following dose administration, and homogenized using approximately three volumes by weight of pH 1.5 Sorensen’s citrate buffer. All urine, fecal homogenates and plasma samples were stored at or below −20 °C until analyzed.
(§3) All radioactivity determinations were performed using Tri-Carb model 2900TR liquid scintillation counter (PerkinElmer, Wellesley, MA). For plasma, urine and residual dose vial analysis, duplicate samples were mixed with Ultima Gold XR scintillation cocktail and directly analyzed by liquid scintillation counting. For fecal homogenate and blood samples, duplicate aliquots were weighed, allowed to dry and combusted using a PerkinElmer model 307 sample oxidizer. The resultant [^14C]CO2 was trapped in Carbosorb (PerkinElmer) in combination with Permafluor and assayed by liquid scintillation counting. For all matrices, any sample that was less than two times the background dpm was assigned a value of zero. Using these criteria, the lower limits of quantification in plasma, blood, urine and feces were 0.894 ng [^14C]pomalidomide equivalent/mL (ngEq/mL), 0.939 ngEq/g, 0.871 ngEq/mL and 2.96 ngEq/g, respectively.
The amount of total radioactivity (ngEq) in urine and feces was determined by multiplying the volume or weight of the samples by the radioactivity concentration. The dose recovered at each time point was determined by total radioactivity in the sample, divided by the total dose administered, multiplied by 100 %. For data BLQ values, a value of zero was assigned for calculations of means.

[3] = Pharmacokinetics of total radioactivity in whole blood and plasma after a single oral 2 mg dose of [14C]pomalidomide; type: in vivo, human
Experimental: as §1, §2, §3
Standard pharmacokinetic parameters were estimated from the pomalidomide (as the sum of the enantiomer concentrations at each time point) and enantiomer concentration versus time profiles or the blood and plasma radioactive concentration equivalents versus time profiles using established non-compartmental methods with WinNonlin (Version 5.2, Pharsight Corp., CA). Pre-dose samples that were below the limit of quantification (BLQ) or missing were assigned a numerical value of zero for the calculation of AUC. All post-dose BLQ were treated as missing in the PK analysis.
Total radioactivity in whole blood and plasma was converted to nanogram equivalent (ngEq) concentrations (ngEq/g for whole blood or ngEq/mL for plasma) based on the actual specific activity of the dose.

[4] = Plasma pharmacokinetics of pomalidomide and its enantiomers (chiral LC–MS/MS) after a single oral 2 mg dose of [14C]pomalidomide; type: in vivo, human
Description: This was an open-label, in-patient, single-dose study in eight non-smoking healthy male adult volunteers conducted in accordance with Good Clinical Practices (GCP) and in compliance with the Declaration of Helsinki. The protocol and consent form were reviewed and approved by the appropriate institutional review board, and all study participants gave written informed consent, before initiation of any study-related procedure. Male subjects were eligible based on standard inclusion/exclusion criteria and were excluded if they had exposure to excess radiation or participated in a study involving radioisotopes within the previous 12 months. Subjects entered the study center on the day prior to dosing and remained at the center for up to 15 days following dosing or until the total radioactivity recovered in excreta was ≥90 % or the radioactivity recovered in excreta per day on three consecutive days was ≤1 % of the administered radioactive dose.
as §1, §2
Plasma concentrations of each pomalidomide enantiomer were determined using a chiral LC–MS/MS assay. The pomalidomide enantiomers and ^13C-labeled pomalidomide (internal standard; IS) were extracted from plasma (stabilized with citric acid) using liquid–liquid extraction with methyl tertiary butyl ether. After transfer to a new tube, the solvent was evaporated, and the samples were reconstituted and injected for LC–MS/MS analysis using a Chiral AGP (50 × 3.0 mm, 5 μm; Chrom Tech, Inc., Apple Valley, MN) analytical column. Positive ions were measured in the multiple reaction monitoring (MRM) mode using a Sciex API-4000 tandem mass spectrometer equipped with a Turbo Ion Spray source. For the QC samples, the accuracy ranged from 91.0 to 106.9 %. For study samples, the amount of [^14C]-labeled material was accounted for when calculating the concentration of enantiomers in plasma using an appropriate correction factor. […]

[5] = percentage of dose, over 216 h, listed as [^14C]pomalidomide
[6] = plasma, as [14C]pomalidomide equivalents, mean ± SD
[7] = whole blood, as [14C]pomalidomide equivalents, mean ± SD

mean total recovery of radioactivity (urine + feces) ([2]; % of radioactive dose, collection over 216 h (9 days), eight subjects, listed as [^14C]pomalidomide): 88% and 88.3%
oral absorption ([2]; inferred from urinary radioactivity and unchanged drug in feces): > 70%
radioactivity excreted in feces, mean [2, 5]: 15% and 15.5 ± 2.5%
radioactivity excreted in urine, mean [2, 5]: 73% and 72.8 ± 16.7%
radioactivity recovered within the first 48 h after dose administration ([2]; urine + feces): > 80%
AUC0−t, plasma total radioactivity [3, 6]: 189 ± 88 ng·h/mL
AUC0−∞, plasma total radioactivity [3, 6]: 225 ± 94 ng·h/mL
AUC0–24, TRA (total radioactivity) ([3]; plasma, geometric mean (%CV)): 194 (27.6) ngEq*h/mL
AUC0−∞, TRA (total radioactivity) ([3]; plasma, geometric mean (%CV)): 245 (37.9) ngEq*h/mL
C max, TRA (total radioactivity) ([3]; plasma, geometric mean (%CV)): 14.8 (17.8) ngEq/mL
t ½, TRA (total radioactivity) ([3]; plasma, geometric mean (%CV)): 10.3 (23.5) h
t ½, plasma total radioactivity ([3]; plasma, mean ± SD, listed as [^14C]pomalidomide): 11.2 ± 2.5 h
T max, plasma total radioactivity ([3]; plasma, median (min–max), listed as [^14C]pomalidomide): 3.25 (1.0–4.0) h
T max, TRA (total radioactivity) ([3]; plasma, median and range): 2.5 (1.0–4.0) h
Radioactivity blood to plasma ratio, AUC0−t ([3]; single oral 2 mg): 0.84
Radioactivity blood to plasma ratio, AUC0−∞ ([3]; single oral 2 mg): 0.87
Radioactivity blood to plasma ratio, C max ([3]; single oral 2 mg): 0.80
AUC0−t, whole blood total radioactivity [3, 7]: 225 ± 99 ng·h/mL
AUC0−∞, whole blood total radioactivity [3, 7]: 260 ± 102 ng·h/mL
t ½, whole blood total radioactivity ([3]; whole blood, mean ± SD): 10.2 ± 1.9 h
T max, whole blood total radioactivity ([3]; whole blood, median (min–max)): 2.5 (1.0–4.0) h
Cmax ([4]; human, healthy male subjects, mean ± SD (n = 8)): 13 ± 3.9 ng/mL
AUC(0-inf) ([4]; male, human, mean ± SD (n = 8)): 189 ± 52 ng·h/mL
AUC(0-t) ([4]; male, human, mean ± SD (n = 8)): 137 ± 67 ng·h/mL
half-life ([4]; male, human, po, 2 mg, mean ± SD (n = 8), read-out: t ½ (converted)): 11.2 h
Tmax ([4]; male, human, po, 2 mg, median (min–max)): < 3.5 h
t ½ ([4]; mean ± SD (n = 8)): 8.9 ± 3.4 h
T max ([4]; median (min–max)): 3.0 (2.0–6.0) h
Structure (SMILES): Nc1cccc2c1C(=O)N(C1CCC(=O)NC1=O)C2=O (racemic) [Pomalidomide, (RS)-4-amino-2-(2,6-dioxo-piperidin-3-yl)-isoindoline-1,3-dione]
mean C max and AUC accumulation ratios ([1]; once-daily administrations, MM patients): < 2
half-life ([1]; relapsed or refractory MM patients): 6.5 to 8.0 h
C max, plasma total radioactivity ([3]; plasma, single oral 2 mg, mean ± SD): 12.1 ± 2.2 ng [^14C]pomalidomide equivalent/mL
C max, whole blood total radioactivity ([3]; whole blood, single oral 2 mg, mean ± SD): 15.1 ± 2.7 ng [^14C]pomalidomide equivalent/mL
